From ChEMBL document CHEMBL3044607, “Quantitative structureactivity relationships of imidacloprid and its analogs with substituents at the C5 position on the pyridine ring in the neuroblocking activity” (J Pestic Sci, 2006)

These compounds were tested on Periplaneta americana (assay: Insecticidal activity against Periplaneta americana (American cockroach) assessed as neuroblocking concentration).
Assay type: functional

Row | Compound | log(1/BC)
1 | O=[N+]([O-])/N=C1\NCCN1Cc1cnc(Cl)c(Br)c1 | 5.51
2 | O=[N+]([O-])/N=C1\NCCN1Cc1cnc(Cl)c(I)c1 | 5.3
3 | COc1cc(CN2CCN/C2=N\[N+](=O)[O-])cnc1Cl | 4.98
4 | CCOc1cc(CN2CCN/C2=N\[N+](=O)[O-])cnc1Cl | 4.66
5 | CCCOc1cc(CN2CCN/C2=N\[N+](=O)[O-])cnc1Cl | 4.56
6 | CC(C)Oc1cc(CN2CCN/C2=N\[N+](=O)[O-])cnc1Cl | 4.46
7 | CCCCOc1cc(CN2CCN/C2=N\[N+](=O)[O-])cnc1Cl | 4.58
8 | CCCCCOc1cc(CN2CCN/C2=N\[N+](=O)[O-])cnc1Cl | 3.59
9 | Cc1cc(CN2CCN/C2=N\[N+](=O)[O-])cnc1Cl | 5.25
10 | CCc1cc(CN2CCN/C2=N\[N+](=O)[O-])cnc1Cl | 4.66
11 | CCCc1cc(CN2CCN/C2=N\[N+](=O)[O-])cnc1Cl | 4.51
12 | CCCCc1cc(CN2CCN/C2=N\[N+](=O)[O-])cnc1Cl | 3.79
13 | O=[N+]([O-])/N=C1\NCCN1Cc1cnc(Cl)c(-c2ccccc2)c1 | 4.46
14 | O=[N+]([O-])/N=C1\NCCN1Cc1cnc(Cl)c(C(F)(F)F)c1 | 4.43
15 | COC(=O)c1cc(CN2CCN/C2=N\[N+](=O)[O-])cnc1Cl | 3.92
16 | N#Cc1cc(CN2CCN/C2=N\[N+](=O)[O-])cnc1Cl | 4.59
17 | O=[N+]([O-])/N=C1\NCCN1Cc1cnc(Cl)c([N+](=O)[O-])c1 | 3.6
18 | [N-]=[N+]=Nc1cc(CN2CCN/C2=N\[N+](=O)[O-])cnc1Cl [5-AZIDOIMIDACLOPRID] | 4.98
19 | O=[N+]([O-])/N=C1\NCCN1Cc1cnc(Cl)c(Cl)c1 [5-CHLOROIMIDACLOPRID] | 5.61
20 | O=[N+]([O-])/N=C1/NCCN1Cc1cnc(Cl)c(F)c1 [5-FLUOROIMIDACLOPRID] | 5.99
21 | O=[N+]([O-])/N=C1\NCCN1Cc1ccc(Cl)nc1 [IMIDACLOPRID] | 5.7
